Key:
[1] = test system: Hepatotoxicity;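 on HepSE bilirubinemia: bilirubinemia hepatic side effect score drawn from the DILIps training data, a prediction system for drug-induced liver injury; call rule not given here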;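 on HepSE cholecystitis: Cholecystitis-related hepatic side effect score drawn from the DILIps (drug-induced liver injury prediction) training data set; call rule not given here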;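 on HepSE cholelithiasis: hepatic side effect score for cholelithiasis, drawn from the DILIps training data for predicting drug-induced liver injury; call rule not given here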;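 on HepSE cirrhosis: cirrhosis hepatic side effect score taken from the DILIps (drug-induced liver injury prediction) training set; call rule not given here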; on HepSE hepatic failure: call rule not given here;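 on HepSE hepatomegaly: hepatic side effect score for hepatomegaly, taken from the training set of the DILIps drug-induced liver injury prediction system; call rule not given here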;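 on HepSE jaundice: Jaundice-related hepatic side-effect score drawn from the training data of the DILIps (drug-induced liver injury prediction system); call rule not given here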
[2] = test system: Hepatotoxicity; remark: listed apart in the source;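 on HepSE bilirubinemia: bilirubinemia hepatic side effect score drawn from the DILIps training data, a prediction system for drug-induced liver injury; call rule not given here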;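 on HepSE cholecystitis: Cholecystitis-related hepatic side effect score drawn from the DILIps (drug-induced liver injury prediction) training data set; call rule not given here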;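 on HepSE cholelithiasis: hepatic side effect score for cholelithiasis, drawn from the DILIps training data for predicting drug-induced liver injury; call rule not given here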;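 on HepSE cirrhosis: cirrhosis hepatic side effect score taken from the DILIps (drug-induced liver injury prediction) training set; call rule not given here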; on HepSE hepatic failure: call rule not given here;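 on HepSE hepatomegaly: hepatic side effect score for hepatomegaly, taken from the training set of the DILIps drug-induced liver injury prediction system; call rule not given here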;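 on HepSE jaundice: Jaundice-related hepatic side-effect score drawn from the training data of the DILIps (drug-induced liver injury prediction system); call rule not given here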
[3] = test system: Hepatotoxicity; remark: listed apart in the source;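 on HepSE bilirubinemia: bilirubinemia hepatic side effect score drawn from the DILIps training data, a prediction system for drug-induced liver injury; call rule not given here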;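 on HepSE cholecystitis: Cholecystitis-related hepatic side effect score drawn from the DILIps (drug-induced liver injury prediction) training data set; call rule not given here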;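 on HepSE cholelithiasis: hepatic side effect score for cholelithiasis, drawn from the DILIps training data for predicting drug-induced liver injury; call rule not given here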;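 on HepSE cirrhosis: cirrhosis hepatic side effect score taken from the DILIps (drug-induced liver injury prediction) training set; call rule not given here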; on HepSE hepatic failure: call rule not given here;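 on HepSE hepatomegaly: hepatic side effect score for hepatomegaly, taken from the training set of the DILIps drug-induced liver injury prediction system; call rule not given here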
[4] = test system: Hepatotoxicity; remark: listed apart in the source;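 on HepSE bilirubinemia: bilirubinemia hepatic side effect score drawn from the DILIps training data, a prediction system for drug-induced liver injury; call rule not given here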;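 on HepSE cholecystitis: Cholecystitis-related hepatic side effect score drawn from the DILIps (drug-induced liver injury prediction) training data set; call rule not given here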;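 on HepSE cholelithiasis: hepatic side effect score for cholelithiasis, drawn from the DILIps training data for predicting drug-induced liver injury; call rule not given here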;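 on HepSE cirrhosis: cirrhosis hepatic side effect score taken from the DILIps (drug-induced liver injury prediction) training set; call rule not given here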; on HepSE hepatic failure: call rule not given here;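 on HepSE hepatomegaly: hepatic side effect score for hepatomegaly, taken from the training set of the DILIps drug-induced liver injury prediction system; call rule not given here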
[5] = test system: Hepatotoxicity; remark: listed apart in the source; on HepSE hepatic failure: call rule not given here
[6] = test system: Hepatotoxicity; remark: listed apart in the source; on HepSE hepatic failure: call rule not given here
[7] = test system: Hepatotoxicity; remark: listed apart in the source
[8] = test system: Hepatotoxicity; remark: listed apart in the source
[9] = test system: Hepatotoxicity; remark: listed apart in the source
[10] = test system: Hepatotoxicity; remark: listed apart in the source
[11] = test system: Hepatotoxicity; remark: listed apart in the source
[12] = test system: Hepatotoxicity; remark: listed apart in the source

COc1ccc(CCN(C)CCCC(C#N)(c2ccc(OC)c(OC)c2)C(C)C)cc1OC (stereo not drawn)
HepSE_bilirubinemia [1]: 0 | HepSE_cholecystitis [2]: 0 | HepSE_cholelithiasis [3]: 0 | HepSE_cirrhosis [4]: 0 | HepSE_hepatic failure [5]: 0 | HepSE_hepatic necrosis [6]: 0 | HepSE_hepatitis [7]: 1 | HepSE_hepatomegaly [8]: 0 | HepSE_jaundice [9]: 1 | HepSE_liver disease [10]: 0 | HepSE_liver fatty [11]: 0 | HepSE_Combined Scores [12]: 2

NCCCC(O)(P(=O)(O)O)P(=O)(O)O [ALENDRONIC ACID]
HepSE_bilirubinemia ([1]; Liver): 0 | HepSE_cholecystitis ([2]; Liver): 0 | HepSE_cholelithiasis ([3]; Liver): 0 | HepSE_cirrhosis ([4]; Liver): 0 | HepSE_hepatic failure ([5]; Liver): 0 | HepSE_hepatic necrosis ([6]; Liver): 0 | HepSE_hepatitis ([7]; Liver): 0 | HepSE_hepatomegaly ([8]; Liver): 0 | HepSE_jaundice ([9]; Liver): 0 | HepSE_liver disease ([10]; Liver): 0 | HepSE_liver fatty ([11]; Liver): 0 | HepSE_Combined Scores ([12]; Liver): 0

CCCCc1oc2ccccc2c1C(=O)c1cc(I)c(OCCN(CC)CC)c(I)c1 [AMIODARONE]
HepSE_bilirubinemia ([1]; Liver): 0 | HepSE_cholecystitis ([2]; Liver): 0 | HepSE_cholelithiasis ([3]; Liver): 0 | HepSE_cirrhosis ([4]; Liver): 1 | HepSE_hepatic failure ([5]; Liver): 0 | HepSE_hepatic necrosis ([6]; Liver): 0 | HepSE_hepatitis ([7]; Liver): 1 | HepSE_hepatomegaly ([8]; Liver): 1 | HepSE_jaundice ([9]; Liver): 0 | HepSE_liver disease ([10]; Liver): 1 | HepSE_liver fatty ([11]; Liver): 0 | HepSE_Combined Scores ([12]; Liver): 5

CC(C)NCC(O)COc1ccc(CC(N)=O)cc1 (stereo not drawn) [ATENOLOL]
HepSE_bilirubinemia ([1]; Liver): 0 | HepSE_cholecystitis ([2]; Liver): 0 | HepSE_cholelithiasis ([3]; Liver): 0 | HepSE_cirrhosis ([4]; Liver): 0 | HepSE_hepatic failure ([5]; Liver): 0 | HepSE_hepatic necrosis ([6]; Liver): 0 | HepSE_hepatitis ([7]; Liver): 0 | HepSE_hepatomegaly ([8]; Liver): 0 | HepSE_jaundice ([9]; Liver): 0 | HepSE_liver disease ([10]; Liver): 0 | HepSE_liver fatty ([11]; Liver): 0 | HepSE_Combined Scores ([12]; Liver): 0

CC(C)c1c(C(=O)Nc2ccccc2)c(-c2ccccc2)c(-c2ccc(F)cc2)n1CC[C@@H](O)C[C@@H](O)CC(=O)O [ATORVASTATIN]
HepSE_bilirubinemia ([1]; Liver): 0 | HepSE_cholecystitis ([2]; Liver): 0 | HepSE_cholelithiasis ([3]; Liver): 0 | HepSE_cirrhosis ([4]; Liver): 0 | HepSE_hepatic failure ([5]; Liver): 0 | HepSE_hepatic necrosis ([6]; Liver): 0 | HepSE_hepatitis ([7]; Liver): 1 | HepSE_hepatomegaly ([8]; Liver): 0 | HepSE_jaundice ([9]; Liver): 1 | HepSE_liver disease ([10]; Liver): 0 | HepSE_liver fatty ([11]; Liver): 0 | HepSE_Combined Scores ([12]; Liver): 3

CN1[C@@H]2CC[C@H]1C[C@@H](OC(=O)C(CO)c1ccccc1)C2 (stereo partly drawn) [ATROPINE]
HepSE_bilirubinemia ([1]; Liver): 0 | HepSE_cholecystitis ([2]; Liver): 0 | HepSE_cholelithiasis ([3]; Liver): 0 | HepSE_cirrhosis ([4]; Liver): 0 | HepSE_hepatic failure ([5]; Liver): 0 | HepSE_hepatic necrosis ([6]; Liver): 0 | HepSE_hepatitis ([7]; Liver): 0 | HepSE_hepatomegaly ([8]; Liver): 0 | HepSE_jaundice ([9]; Liver): 0 | HepSE_liver disease ([10]; Liver): 0 | HepSE_liver fatty ([11]; Liver): 0 | HepSE_Combined Scores ([12]; Liver): 0

CC1=C(C(=O)O)N2C(=O)[C@@H](NC(=O)[C@H](N)c3ccccc3)[C@H]2SC1 [CEPHALEXIN ANHYDROUS]
HepSE_bilirubinemia ([1]; Liver): 0 | HepSE_cholecystitis ([2]; Liver): 0 | HepSE_cholelithiasis ([3]; Liver): 0 | HepSE_cirrhosis ([4]; Liver): 0 | HepSE_hepatic failure ([5]; Liver): 0 | HepSE_hepatic necrosis ([6]; Liver): 0 | HepSE_hepatitis ([7]; Liver): 1 | HepSE_hepatomegaly ([8]; Liver): 0 | HepSE_jaundice ([9]; Liver): 1 | HepSE_liver disease ([10]; Liver): 0 | HepSE_liver fatty ([11]; Liver): 0 | HepSE_Combined Scores ([12]; Liver): 2

O=C(O)COCCN1CCN(C(c2ccccc2)c2ccc(Cl)cc2)CC1 (stereo not drawn) [CETIRIZINE]
HepSE_bilirubinemia ([1]; Liver): 0 | HepSE_cholecystitis ([2]; Liver): 0 | HepSE_cholelithiasis ([3]; Liver): 0 | HepSE_cirrhosis ([4]; Liver): 0 | HepSE_hepatic failure ([5]; Liver): 0 | HepSE_hepatic necrosis ([6]; Liver): 0 | HepSE_hepatitis ([7]; Liver): 1 | HepSE_hepatomegaly ([8]; Liver): 0 | HepSE_jaundice ([9]; Liver): 1 | HepSE_liver disease ([10]; Liver): 0 | HepSE_liver fatty ([11]; Liver): 0 | HepSE_Combined Scores ([12]; Liver): 2

O=C(O)c1cn(C2CC2)c2cc(N3CCNCC3)c(F)cc2c1=O [CIPROFLOXACIN]
HepSE_bilirubinemia ([1]; Liver): 1 | HepSE_cholecystitis ([2]; Liver): 0 | HepSE_cholelithiasis ([3]; Liver): 0 | HepSE_cirrhosis ([4]; Liver): 0 | HepSE_hepatic failure ([5]; Liver): 1 | HepSE_hepatic necrosis ([6]; Liver): 1 | HepSE_hepatitis ([7]; Liver): 1 | HepSE_hepatomegaly ([8]; Liver): 1 | HepSE_jaundice ([9]; Liver): 1 | HepSE_liver disease ([10]; Liver): 0 | HepSE_liver fatty ([11]; Liver): 0 | HepSE_Combined Scores ([12]; Liver): 7

Clc1ccc2c(c1)CCc1cccnc1C2=C1CCNCC1 [DESLORATADINE]
HepSE_bilirubinemia [1]: 0 | HepSE_cholecystitis [2]: 0 | HepSE_cholelithiasis [3]: 0 | HepSE_cirrhosis [4]: 0 | HepSE_hepatic failure [5]: 0 | HepSE_hepatic necrosis [6]: 0 | HepSE_hepatitis [7]: 1 | HepSE_hepatomegaly [8]: 0 | HepSE_jaundice [9]: 0 | HepSE_liver disease [10]: 0 | HepSE_liver fatty [11]: 0 | HepSE_Combined Scores [12]: 1

CN1C(=O)CN=C(c2ccccc2)c2cc(Cl)ccc21 [DIAZEPAM]
HepSE_bilirubinemia ([1]; Liver): 0 | HepSE_cholecystitis ([2]; Liver): 0 | HepSE_cholelithiasis ([3]; Liver): 0 | HepSE_cirrhosis ([4]; Liver): 0 | HepSE_hepatic failure ([5]; Liver): 0 | HepSE_hepatic necrosis ([6]; Liver): 0 | HepSE_hepatitis ([7]; Liver): 0 | HepSE_hepatomegaly ([8]; Liver): 0 | HepSE_jaundice ([9]; Liver): 1 | HepSE_liver disease ([10]; Liver): 0 | HepSE_liver fatty ([11]; Liver): 0 | HepSE_Combined Scores ([12]; Liver): 1

CN(C)CCOC(c1ccccc1)c1ccccc1 [DIPHENHYDRAMINE]
HepSE_bilirubinemia ([1]; Liver): 0 | HepSE_cholecystitis ([2]; Liver): 0 | HepSE_cholelithiasis ([3]; Liver): 0 | HepSE_cirrhosis ([4]; Liver): 0 | HepSE_hepatic failure ([5]; Liver): 0 | HepSE_hepatic necrosis ([6]; Liver): 0 | HepSE_hepatitis ([7]; Liver): 0 | HepSE_hepatomegaly ([8]; Liver): 0 | HepSE_jaundice ([9]; Liver): 0 | HepSE_liver disease ([10]; Liver): 0 | HepSE_liver fatty ([11]; Liver): 0 | HepSE_Combined Scores ([12]; Liver): 0

CC(C)(C(=O)O)c1ccc(C(O)CCCN2CCC(C(O)(c3ccccc3)c3ccccc3)CC2)cc1 (stereo not drawn) [FEXOFENADINE]
HepSE_bilirubinemia ([1]; Liver): 0 | HepSE_cholecystitis ([2]; Liver): 0 | HepSE_cholelithiasis ([3]; Liver): 0 | HepSE_cirrhosis ([4]; Liver): 0 | HepSE_hepatic failure ([5]; Liver): 0 | HepSE_hepatic necrosis ([6]; Liver): 0 | HepSE_hepatitis ([7]; Liver): 0 | HepSE_hepatomegaly ([8]; Liver): 0 | HepSE_jaundice ([9]; Liver): 0 | HepSE_liver disease ([10]; Liver): 0 | HepSE_liver fatty ([11]; Liver): 0 | HepSE_Combined Scores ([12]; Liver): 0

Cc1ccc(NC(=O)c2ccc(CN3CCN(C)CC3)cc2)cc1Nc1nccc(-c2cccnc2)n1 [IMATINIB]
HepSE_bilirubinemia [1]: 0 | HepSE_cholecystitis [2]: 0 | HepSE_cholelithiasis [3]: 0 | HepSE_cirrhosis [4]: 0 | HepSE_hepatic failure [5]: 1 | HepSE_hepatic necrosis [6]: 1 | HepSE_hepatitis [7]: 1 | HepSE_hepatomegaly [8]: 0 | HepSE_jaundice [9]: 1 | HepSE_liver disease [10]: 0 | HepSE_liver fatty [11]: 0 | HepSE_Combined Scores [12]: 4

CC(C)c1nc(CN(C)C(=O)N[C@H](C(=O)N[C@@H](Cc2ccccc2)C[C@H](O)[C@H](Cc2ccccc2)NC(=O)OCc2cncs2)C(C)C)cs1 [RITONAVIR]
HepSE_cholecystitis [2]: 0 | HepSE_cholelithiasis [3]: 0 | HepSE_cirrhosis [4]: 0 | HepSE_hepatic necrosis [6]: 0 | HepSE_hepatitis [7]: 1 | HepSE_hepatomegaly [8]: 1 | HepSE_jaundice [9]: 1 | HepSE_liver disease [10]: 0 | HepSE_liver fatty [11]: 0 | HepSE_Combined Scores [12]: 3

Reference: ChEMBL document CHEMBL1909294, “Translating clinical findings into knowledge in drug safety evaluation--drug induced liver injury prediction system (DILIps)” (PLoS Comput Biol, 2011)
